What all share (test): DTP human tumour cell line panel, 48 h
Assay [1] concerns A498 renal.
Assay [2] deals with A549 NSCLC.
In assay [3] the test system is HOP-92 NSCLC.
For assay [4], the system named is LOX IMVI melanoma.
The test system of assay [5] is NCI-H460 lung.
For assay [6], the system named is SNB-19 CNS.
The subject of assay [7] is U251 CNS.
Assay [8] deals with BT-549 breast.
Assay [9] deals with MDA-MB-435.

Results on 17 molecules are retold here after PubChem BioAssay (NCI).

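Protocol summary: plate cells (96-well), add compound at 5 concentrations, incubate 48 h, interpolate endpoints linearly. GI50: concentration for 50% inhibition of growth. TGI: concentration producing complete growth inhibition.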

Turning to `N#CCN1C(=O)c2cc([N+](=O)[O-])cc3cc([N+](=O)[O-])cc(c23)C1=O`, the concentration for total growth inhibition (TGI) (commonly the concentration giving total growth inhibition) in assay [1] is above 100 µM; in assay [2], 43.8 µM; in [3], 32.5 µM; in [4] it was 18.8 µM; in [5], 45.9 µM; in assay [6], above 100 µM. The molecule also showed a TGI in assay [7] above 55.6 µM.
On to `CC(=O)/C(=C\c1ccccc1O)C(=O)Nc1ccccc1C`, for which the total growth inhibition concentration (TGI) is 89.1 µM in assay [2]; 44.9 µM in [3]; 27.6 µM in assay [4]; above 100 µM in assay [5]; 54.3 µM in [6]; 24.7 µM in assay [7].
On to `NC1=NC(=O)C(CC(=O)Nc2ccc(Cl)cc2Cl)S1` (stereo not drawn), for which the TGI in assay [1], in assay [2], in assay [4], in assay [5], in [6] and in [7] was above 100 µM each time.
For `O=C1OC(=O)c2c1c(-c1ccccc1)nc1ccccc21`, the concentration for total growth inhibition (TGI) in assay [1], in assay [2], in [4], in [5], in [6] and in assay [7] was above 100 µM each time.
For `O=C(NCCNCCO)c1cccc2ccc(-c3ccccc3)nc12`, the total growth inhibition concentration (TGI) in [1] worked out at 8.41 µM; in [2], 12.8 µM; in [3] it was 11.7 µM; in [4], 10.5 µM; in assay [5], 11.6 µM; in assay [6], 28.7 µM. The molecule also yielded a concentration for total growth inhibition (TGI) in assay [7] of 17.4 µM.
On to `O=Cc1ccc2c(c1I)OCO2`, for which the TGI in [1], in assay [2], in assay [4], in [5], in assay [6] and in assay [7] was above 100 µM throughout.
Regarding `CCC(=O)Nc1ccc(N2C(=O)/C(=C/c3ccc(OC)cc3)N=C2c2ccccc2)cc1`, the GI50 (usually the concentration giving 50% growth inhibition) was 10.4 µM in [1]; 6.27 µM in assay [2]; 10.9 µM in assay [8]; 0.0351 µM in assay [3]; 2.51 µM in assay [4]; 20.5 µM in assay [9]. Besides, the GI50 in assay [5] is 2.1 µM; in assay [6], 14.1 µM; in assay [7], 1.66 µM. The concentration for total growth inhibition (TGI) is above 50 µM in assay [1]; 27 µM in assay [2]; 36.4 µM in assay [8]; 21.1 µM in assay [3]; 13.2 µM in [4]; above 50 µM in [9]. Also, the TGI was above 50 µM in assay [5], above 50 µM in [6] and 8.87 µM in assay [7].
Turning to `ClC1=C(Cl)C(Cl)(Cl)c2c3c(c4c(c21)C(Cl)(Cl)C(Cl)=C4Cl)C(Cl)(Cl)C(Cl)=C3Cl`, the TGI in [2], in assay [4], in assay [5], in assay [6] and in assay [7] was above 100 µM in each case.
In the case of `COc1ccc(-c2cc(=O)c3c(O)cccc3o2)c(OC)c1OC`, the TGI was 82.9 µM in [1]; above 100 µM in assay [2]; above 100 µM in [3]; above 100 µM in assay [4]; above 100 µM in assay [5]; above 100 µM in assay [7].
With `CC(C)(C)c1cc2nc(c1)C(C(F)(F)F)(C(F)(F)F)OB(Br)OC2(C(F)(F)F)C(F)(F)F`, the TGI was determined as 6.77 µM in [2], 3.78 µM in assay [4], 14.9 µM in assay [6] and 1.37 µM in assay [7].
With `O=C(O)CCNS(=O)(=O)c1ccc([N+](=O)[O-])cc1`, the concentration for total growth inhibition (TGI) in [1], in [2], in assay [3], in assay [4], in assay [5] and in [6] was above 100 µM in each case. This molecule also gave a concentration for total growth inhibition (TGI) in assay [7] above 100 µM.
`COc1cc(C2(C)SCCCS2)cc(OC)c1OC`: the TGI in assay [1], in assay [2], in assay [3], in assay [4], in assay [5] and in assay [6] was above 100 µM each time. In [7], this molecule came in with a TGI above 100 µM.
As for `CC(CO)(Nc1ccc([N+](=O)[O-])cc1[N+](=O)[O-])C(=O)O` (stereo not drawn), the TGI in [2] is above 100 µM; in [8], 67.2 µM; in assay [4] it was 48.2 µM; in assay [9], 44.9 µM; in [5], 28.8 µM; in [6], above 100 µM. For the same molecule, in assay [7], the TGI came out at 49.2 µM.
With `COC(=O)C(C(=O)C(=O)Nc1ccc([N+](=O)[O-])cc1)c1nc2ccc([N+](=O)[O-])cc2[nH]c1=O` (stereo not drawn), the TGI in assay [1], in [2], in assay [3], in assay [4], in assay [5] and in assay [6] was above 100 µM each time. Further, in assay [7], the TGI is above 100 µM.
In the case of `Cc1cccc(NC(=O)/C(=N\N)C(c2cnc3ccc([N+](=O)[O-])cc3n2)[N+](=O)[O-])c1C` (stereo not drawn), the TGI in [2], in assay [3], in assay [4], in assay [5] and in assay [6] was above 100 µM each time.
For the molecule `Cc1cc2c(c(C(N)=O)c1C)-c1cc(Cl)cc(Cl)c1C2=O`, the TGI in [1], in [3], in assay [4], in [5], in assay [6] and in assay [7] was above 100 µM throughout.
Take `COc1cc(C(=O)c2cc(C)c3[nH]c4ccc(O)cc4c3c2C)cc(OC)c1OC`: the GI50 was below 0.01 µM in assay [1]; 0.0191 µM in [2]; below 0.0164 µM in assay [8]; 0.944 µM in [3]; below 0.0143 µM in assay [4]; below 0.01 µM in [9]. Moreover, the figures for the GI50 in [5], in [6] and in assay [7] were below 0.0185 µM, 0.0289 µM and 0.0226 µM, respectively. For the same molecule, the total growth inhibition concentration (TGI) in [1] was below 0.0189 µM; in [2] it was above 100 µM; in [8], 1.26 µM; in assay [3], above 100 µM; in [4], above 100 µM; in assay [9] it was 0.018 µM. The values for the concentration for total growth inhibition (TGI) in assay [5], in assay [6] and in assay [7] were above 100 µM, above 47.3 µM and above 100 µM, respectively.
